Data: PMC4673272, “Oral nano-delivery of anticancer ginsenoside 25-OCH3-PPD, a natural inhibitor of the MDM2 oncogene: Nanoparticle preparation, characterization, in vitro and in vivo anti-prostate cancer activity, and mechanisms of action” (Oncotarget, 2015)

Tests used:
PC3 cells = assay: Apoptosis, Annexin V-FITC, PC3; type: cell-based, Human; settings: PC3, 12.3 μg/mL, 48 h
Description: (§1) Assays for cell viability and apoptosis were performed as described previously. In brief, 3–4 × 10^4 cells were seeded in a 96-well plate and treated with various concentrations of GS25 or GS25NP for 24, 48, or 72 h for the MTT assay. To detect apoptosis, 2–3 × 10^5 cells were seeded in 6-well plates and were treated with GS25 or GS25NP for 48 h. Cells positive for Annexin V-FITC and PI were counted on a BD FACSVerse instrument (BD Biosciences, CA, USA).

[1] = Maximum tolerated dose (MTD) study; type: in vivo; settings: CD-1 mice, oral
Description: To assess the possible host toxicity of GS25 and GS25NP and establish initial doses for in vivo treatment, a multi-dose MTD study was initially performed for both GS25 and GS25NP at a dose of 200 mg/kg for 7 days. […] The toxicity studies were continued with dose of 400 mg/kg/d for 7 days using a similar protocol. At the end of the study, all mice were euthanized, and various tissues (liver, lungs, kidneys, spleen, heart, and brain) were collected for a pathological analysis.

Caco-2 cell monolayers = assay: Caco-2 cell monolayer permeability assay; type: in vitro ADME, Human; settings: apical to basolateral, 37°C, pH 6.0
Description: The Caco-2 cell monolayer permeability assay was performed as reported previously. In brief, Caco-2 cells were seeded onto polycarbonate 6-well Transwell® inserts (mean pore size 3.0 μm, Corning Costar Inc., NY, USA) at a density of 4 × 10^5 cells/well, then the confluent monolayers (10–12 days) were used for permeability studies. The transepithelial electrical resistance (TEER) of the monolayer was measured using an epithelial voltohmmeter (EVOM, WPI Inc., USA) to determine the formation of the monolayer and its integrity during the experiment. The studies were carried out in HBSS containing 30 mM HEPES at pH 6.0. Monolayers were washed with HBSS prior to the experiment, after which 0.5 and 1.2 mL of HBSS was placed into the upper and lower compartments, respectively. A total volume of 100 μL of solution (1 or 5 μg/mL) was taken from the lower compartment at regular intervals over 120 min and replaced with the same volume of fresh buffer, followed by a LC-MS/MS analysis. Apparent permeability coefficients (Papp) were calculated using the equation: (∂Q/∂t)/(A*C0), where “∂Q/∂t” is the permeability rate of the drug across the cells, “A” is the diffusion area of the monolayer and “C0” is the initial concentration of GS25 in the upper compartment.

PC3 xenograft tumors = assay: In vivo efficacy and host toxicity in PC3 prostate cancer xenograft model; set-up: species or system nude mice
Description: The animal study protocol was approved by the Institutional Animal Use and Care Committee of the Texas Tech University Health Sciences Center. Male athymic pathogen-free nude mice (nu/nu, 4–6 weeks) were purchased from Charles River Laboratories (Wilmington, MA). The PC3 human prostate cancer xenografts were established as reported previously. Briefly, a total of 5 × 10^6 PC3 cells (in 0.1 mL) were subcutaneously injected into the left inguinal area of the mice. All animals were monitored for activity, physical condition, body weight, and tumor growth. When the tumor volume reached ~ 100 mm^3, the mice bearing PC3 xenografts were randomly divided into treatment and control groups (10 mice/each group). GS25NP was dissolved in water and administered by oral gavage at a dose of 20 mg/kg/d or 100 mg/kg/d, 5 day/week for 4 weeks, while GS25 in PEG400:EtOH:saline (57.1:14.3:28.6, v/v/v) was administered at a dose of 100 mg/kg/d for 4 weeks. The control groups received vehicle only or void NPs. At the end of the experiment, xenograft tumors and various organs (liver, lungs, kidneys, spleen, heart, and brain) were excised and snap frozen for Western blotting, immunohistochemical studies, TUNEL assays, and hematoxylin and eosin staining.
All of the staining assays were performed as described previously. Briefly, tissues were fixed and embedded in paraffin, cut into 5 μm sections, and then affixed onto glass slides. For the immunohistochemical studies, the tumor sections were blocked and incubated with a biotinylated anti-human MDM2 antibody (diluted 1:50 in 5% BSA in PBS) for 1–2 h at room temperature. Sections were then incubated with pre-diluted streptavidin-peroxidase HRP conjugates and stained with DAB chromogen according to the manufacturer's instructions. Finally, sections were lightly counterstained with hematoxylin. […] Tissue sections were analyzed under a phase-contrast Olympus microscope (Olympus America Inc).

LNCaP cells = assay: Apoptosis, Annexin V-FITC, LNCaP; type: cell-based, Human; settings: 12.3 μg/mL, 48 h
Description: as §1

DU145 cells = assay: Apoptosis, Annexin V-FITC, DU145; type: cell-based, Human; settings: DU145, 12.3 μg/mL, 48 h
Description: as §1

MDM2 = assay: Western blotting of MDM2 and apoptosis-related proteins in prostate cancer cells; type: cell-based, Human; settings: 2.5 μg/mL, 24 h, LNCaP, DU145, PC3 cells
Description: In the in vitro studies, prostate cancer cells with or without GS25 or GS25NP treatment were lysed in NP40 lysis buffer containing a protease inhibitor mixture (Sigma, St. Louis, MO, USA). In the in vivo studies, tumor tissues were removed and homogenized in NP40 lysis buffer (100 mg tumor tissue/1 mL NP40 buffer), and the supernatants of the homogenates was collected. Then, the cell lysates and tumor homogenates were subjected to Western blotting analyses for the expression levels of MDM2 and other related proteins using the methods described in our previous studies.

PC3 (p53 null) cells = assay: Cell viability, MTT assay, PC3; type: cell-based, Human; settings: GS25 equivalent
Description: as §1

[2] = Pharmacokinetics and biodistribution in CD-1 mice; type: in vivo
Description: Pharmacokinetic studies were carried out in normal CD-1 mice and nude mice bearing PC3 xenograft tumors as described previously. Briefly, male CD-1 mice were divided randomly into four groups with three mice per time point. One group received 20 mg/kg of GS25 in PEG400:EtOH:saline by intravenous injection into the tail vein. One group of mice received GS25 in PEG400:EtOH:saline (57.1:14.3:28.6, v/v/v) at a dose of 100 mg/kg by oral administration. Two groups received GS25NP at a dose of 20 mg/kg and 100 mg/kg by oral administration. Nude mice bearing PC3 xenografts were divided into two groups and given GS25 and GS25NP at a dose of 100 mg/kg by oral administration. For orally-dosed mice, the plasma and various tissues (tumor, liver, lungs, kidneys, spleen, heart, brain, pancreas, fat, stomach, stomach contents, small intestine, small intestine contents, large intestine, and large intestine contents) were collected at 0, 15, 30, and 60 min, and 2, 4, 8, 24, 48, and 72 h after treatment. For mice that received an i.v. injection, various tissues were collected at 0, 5, 10, 30, and 60 min, and 2, 4, 8, 24, 48, and 72 h after treament. The plasma and tissue samples were stored at −80°C until they were analyzed by LC-MS/MS.

[3] = system: LNCaP (p53 wild-type) cells; assay: Cell viability, MTT assay, LNCaP; type: cell-based, Human; settings: GS25 equivalent
Description: as §1

DU145 (p53 mutant) cells = assay: Cell viability, MTT assay, DU145; type: cell-based, Human; settings: GS25 equivalent
Description: as §1

[4] = nude mice bearing PC3 xenografts, 4-week oral treatment (GS25 100 mg/kg; GS25NP 20 and 100 mg/kg)

For `COC(C)(C)CCC[C@](C)(O)[C@H]1CC[C@]2(C)[C@@H]1[C@H](O)C[C@@H]1[C@@]3(C)CC[C@H](O)C(C)(C)[C@@H]3CC[C@]12C` [GS25, 20(s)-25-methoxyl-dammarane-3beta, 12beta, 20-triol], the Apoptotic cells (PC3 cells) was 22.9%, the “Body weight change in MTD study” value ([1]; 200 or 400 mg/kg/d for 7 days) was “No significant decrease in mouse body weight” and the “Histological examination of liver, lungs, kidneys, spleen, heart, brain vs vehicle” value ([1]; 200 or 400 mg/kg/d for 7 days) was “no significant differences among the groups”. For the same molecule, the “Toxicity in MTD study” value ([1]; up to 400 mg/kg/d for 7 days) was “no toxicity”, the “Apparent permeability coefficient (Papp)” value (Caco-2 cell monolayers) was 38 ×10⁻⁶ cm/s and the “Inhibition of PC3 xenograft tumor growth” value (PC3 xenograft tumors; 100 mg/kg oral, 5 days/week for 4 weeks) was “approximately 41%”. For the same molecule, the “Change in average body weight” value (PC3 xenograft tumors; [4]) was “no significant changes in the average body weights”, the “Histological findings in liver, lungs, kidneys, spleen, heart, brain vs control” value (PC3 xenograft tumors; [4]) was “no significant differences in the histological findings” and the Apoptotic cells (LNCaP cells) was 28.5%. The Apoptotic cells (DU145 cells) was 18.2%, the “Effect on MDM2 and apoptosis-associated protein levels (p53, Bax, cleaved-PARP)” value (MDM2) was “did not produce significant effects” and the “IC50 PC-3” value (PC3 (p53 null) cells; treatment time 24 h) was 10.9 µg/mL. For the same molecule, the “IC50 PC-3” value (PC3 (p53 null) cells; treatment time 48 h) was 6.7 µg/mL, the “IC50 PC-3” value (PC3 (p53 null) cells; treatment time 72 h) was 3.8 µg/mL and the Oral bioavailability ([2]; 100 mg/kg oral vs 20 mg/kg i.v.) was ~ 14.9%. It also gave an AUC0-t ([2]; plasma, 100 mg/kg, p.o.) of 3500 ng·h/mL, a Cmax ([2]; plasma, 100 mg/kg, p.o.) of 900 ng/mL and a T1/2 ([2]; plasma, 100 mg/kg, p.o.) of 2.1 h. For the same molecule, the “IC50 LNCaP” value ([3]; treatment time 24 h) was 18.3 µg/mL, the “IC50 LNCaP” value ([3]; treatment time 48 h) was 11.6 µg/mL and the “IC50 LNCaP” value ([3]; treatment time 72 h) was 8.0 µg/mL. The “IC50 DU145” value (DU145 (p53 mutant) cells; treatment time 24 h) was 13.1 µg/mL, the “IC50 DU145” value (DU145 (p53 mutant) cells; treatment time 48 h) was 8.0 µg/mL and the “IC50 DU145” value (DU145 (p53 mutant) cells; treatment time 72 h) was 5.4 µg/mL.
